According to patent publication US7998965B2, “Glutamate aggrecanase inhibitors” (Wyeth LLC, priority 2005, dated 2011):
Converted amounts (≈) assume the structure as drawn.

How the values were obtained:
[1] = molecular target: T1, purified recombinant human Aggrecanase-2 (Ag2t-Phe628-Strep) (Homo sapiens, UniProt Q9UNA0); assay: In vitro fluorescence screen for Aggrecanase-2 inhibitors; type: biochemical; conditions: Table 1; read-out: Agg 2 IC50
T1 construct: the form used is denoted as Ag2t-Phe628-Strep (MW=41,737)
T1 sequence (Q9UNA0 262-628): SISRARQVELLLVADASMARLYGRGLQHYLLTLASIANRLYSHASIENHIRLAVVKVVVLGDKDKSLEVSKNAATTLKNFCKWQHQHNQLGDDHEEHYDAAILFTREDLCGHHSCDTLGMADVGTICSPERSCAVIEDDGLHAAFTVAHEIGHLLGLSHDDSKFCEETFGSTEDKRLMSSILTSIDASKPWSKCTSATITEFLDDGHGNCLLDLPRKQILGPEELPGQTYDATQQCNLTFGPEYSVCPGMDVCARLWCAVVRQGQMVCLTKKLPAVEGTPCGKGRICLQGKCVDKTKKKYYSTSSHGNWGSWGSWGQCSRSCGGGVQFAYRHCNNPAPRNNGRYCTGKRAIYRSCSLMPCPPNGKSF

[2] = test system: Aggrecanase-mediated aggrecan cleavage in human OA cartilage explants; assay: Human osteoarthritic cartilage explant efficacy study (BC3 western analysis); type: cell-based
Text: (§1) Human OA Cartilage Explant Culture: Discarded tissues from consented knee replacement patients were obtained from New England Baptist Hospital (Brookline, Mass.) in sterile phosphate buffered saline (PBS) after about 2-4 hrs post surgery. Cartilage slices were harvested from the knee specimens and washed several times in PBS. These cartilage slices were cut into appropriate pieces (6-8 mm) and rinsed in PBS and then in media and further cultured for additional days as cartilage explants. The medium consisted of Dulbecco's Modified Eagle's medium (DMEM, JRH Biosciences, Lenexa, Kans.), 50 μg/ml ascorbic acid (Wako, Osaka, Japan), 10 mM HEPES, pH 7.0 (Mediatech, Herndon, Va.), 2 mM L-glutamine (Mediatech), 100 U/ml antibiotic-antimycotic solution (Mediatech).
Test compounds: The test compounds are described in Examples 8OO, 8NNNNNNN, and 8WWWWWWW. Stock solutions of the compounds were prepared at 1 mg/ml in DMSO, aliquoted and stored at −20° C. Working solutions of the compounds were made in DMSO and added to the culture for efficacy studies.
Efficacy study: Cartilage explants were cultured for 2-3 days in DMEM medium in a 37° C. and 5% CO2 environment to equilibrate the tissue. Explants were weighed (˜250 mg) and placed in wells of a 24-well culture dish in 1 ml of medium and 3 replicates per treatment group. For the efficacy study, cartilage explants were cultured for 6 days in the presence or absence of various concentrations of the test compound. The media was replaced on day 3 and the experiment was terminated on day 6. Total aggrecan content of conditioned media was measured by a colorimetric assay with DMMB (Farndale, R W et al., Biochim Biophys Acta. 1986, 883, 173-177).
Western analysis: Aggrecan fragments in conditioned medium were analyzed by western analysis using neoepitope antibody, BC-3 designed to recognize the Aggrecanase-generated N-terminal interglobular neoepitope ^374ARGS. Equal cartilage weight equivalent conditioned media from each replicate well per treatment group was pooled and digested with Chondroitinase ABC (Sigma, St Louis, Mo.), Keratinase I (Seikagaku America, Falmouth, Mass.) and Keratinase II (Seikagaku America, Falmouth, Mass.) for 2 h at 37° C. Samples were concentrated by YM-10 centrifugal filter device (Millipore Corp., Bedford, Mass.), lyophilized and reconstituted with equal volume of water. Samples were separated under reducing conditions on 4-12% gradient Tris-glycine gels (Invitrogen, Carlsbad, Calif.). Proteins from the gels were transferred to nitrocellulose membranes. Immunoblots were probed using Mab BC-3 (Abcam, Cambridge, Mass.). Incubation with primary and alkaline-phosphatase-conjugated secondary goat anti-mouse IgG (Promega Corp., Madison, Wis.) was performed overnight at 4° C. and at room temperature for 1 h, respectively. The immunoblots were incubated with NBT/BCIP substrate (Promega Corp., Madison, Wis.) at room temperature to achieve optimum color development. The aggrecan fragments containing the ARGS neoepitope were quantitated by densitometry analysis and the percentage inhibition of aggrecan degradation by test compounds was determined.

[3] = test system: newly synthesized aggrecan in human OA articular cartilage; assay: Cartilage aggrecan metabolism study in human OA cartilage explants; type: cell-based; conditions: cartilage from 3 human OA donors, 35SO4 label
Text: as §1
Cartilage aggrecan metabolism study: Cartilage metabolism study was performed with test compound 8OO. Cartilage explants immediately after harvest were cultured in the presence or absence of test compound 8OO. On day 3, media was collected and replaced with media, test compound and labeled sulfate (^35SO4,5 mCi, Perkin Elmer, Boston, Mass.). On day 6, media was collected, explants washed and replaced with media and test compound 8OO. […] Labeled aggrecan molecules were counted using Opti-Fluor (Perkin Elmer) and a liquid scintillation-measuring instrument (Beckman Coulter, Fullerton, Calif.). […]

**Q.** Which IC50 [1] does the source give for `CC(C)(Cc1ccc(F)cc1)NC(=O)[C@H](CCC(=O)O)NC(=O)c1ccc(-c2ccccc2)cc1` [Example 8OO, N^2-(1,1′-biphenyl-4-ylcarbonyl)-N^1-[2-(4-fluorophenyl)-1,1-dimethylethyl]-L-α-glutamine] here?
**A.** 0.044 µM

**Q.** And the EC50 ([2]; 144 h, human OA cartilage explants, 6 days, BC3 analysis, read-out: EC50 (inhibition of aggrecanase generated aggrecan fragments))?
**A.** ~0.15 µg/mL (≈ 0.315 µM)

**Q.** What about the inhibition at 0.02 µg/mL ([2]; Homo sapiens, 0.02 ug/ml, average of 15 donors, read-out: % inhibition (BC3 analysis)) of the same compound?
**A.** 8.52%

**Q.** What about the inhibition at 0.04 µg/mL ([2]; Homo sapiens, 0.04 ug/ml, average of 15 donors, read-out: % inhibition (BC3 analysis)) of the same compound?
**A.** 26.2%

**Q.** What about the inhibition at 0.08 µg/mL ([2]; Homo sapiens, 0.08 ug/ml, average of 15 donors, read-out: % inhibition (BC3 analysis)) of the same compound?
**A.** 42.9%

**Q.** What about the inhibition at 0.15 µg/mL ([2]; Homo sapiens, 0.15 ug/ml, average of 15 donors, read-out: % inhibition (BC3 analysis)) of the same compound?
**A.** 49%

**Q.** What about the inhibition at 0.3 µg/mL ([2]; Homo sapiens, 0.3 ug/ml, average of 15 donors, read-out: % inhibition (BC3 analysis)) of the same compound?
**A.** 56.4%

**Q.** What about the inhibition at 0.6 µg/mL ([2]; Homo sapiens, 0.6 ug/ml, average of 15 donors, read-out: % inhibition (BC3 analysis)) of the same compound?
**A.** 73.9%

**Q.** What about the inhibition at 1.25 µg/mL ([2]; Homo sapiens, 1.25 ug/ml, average of 15 donors, read-out: % inhibition (BC3 analysis)) of the same compound?
**A.** 83.4%

**Q.** What about the inhibition at 2.5 µg/mL ([2]; Homo sapiens, 2.5 ug/ml, average of 15 donors) of the same compound?
**A.** 101%

**Q.** What about the inhibition at 5 µg/mL ([2]; Homo sapiens, 5 ug/ml, average of 15 donors) of the same compound?
**A.** 98.9%

**Q.** What about the inhibition at 10 µg/mL ([2]; Homo sapiens, 10 ug/ml, average of 15 donors) of the same compound?
**A.** 102%

**Q.** And the “aggrecan released into the medium” value [3]?
**A.** equivalent decrease

**Q.** And the “newly synthesized aggrecan content of the cartilage matrix” value [3]?
**A.** dose dependent increase
